Data on 1 compound can be found in patent US8835644B2, “Broad spectrum benzothiophene-nitrothiazolide and other antimicrobials” (University of Virginia Patent Foundation, priority 2009, dated 2014).

One test concerns S. epidermidis. The test can be described thus: MIC testing by broth dilution, S. epidermidis plank. It counts as cell-based, Staphylococcus epidermidis. The essentials: (§1)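 Planktonic E. coli (LB) and S. epidermidis (Trypticase Soy), plus C. jejuni (Brain Heart Infusion), were exposed to a dilution series starting at 32 μg/ml. The C. difficile values are anaerobic zone ratios against NTZ.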
(In general: Broth dilution looks for growth in wells or tubes with falling amounts of substance.)

The test system of test [1] is EAEC 042 (AAF/II fimbriae). The test can be described thus: Hemagglutination of sheep erythrocytes, EAEC 042. Also: key: +++ = strong hemagglutination reaction; + weak; − no hemagglutination. It counts as cell-based, Escherichia coli. As to conditions: EAEC 042 grown in MinA-G with 20 μg/ml NTZ. The method, then:
HA assays were performed in 96-well microplates as described in (1). Bacteria grown over night without shaking ([…]) were suspended in PBS and diluted to OD660 of […] was mixed with an equal volume of 3% (vol/vol) sheep erythrocyte suspension containing 1% mannose, except when type I fimbriae producing strains were assayed. In the latter, bacteria were grown statically in LB medium (with and without NTZ) for 48 h and HA was determined with guinea pig erythrocytes. HA reactions were incubated at 4° C. for […] HA was determined visually against controls receiving no NTZ. All assays were prepared in triplicate and repeated twice.

The next test has as its system C. jejuni. The test can be described thus: MIC testing by broth dilution, C. jejuni. The test is classed as cell-based, Campylobacter jejuni. In short, it runs like this: as §1
Test [2] concerns aggR and aafA transcripts of EAEC 042. The test can be described thus: qRT-PCR of aggR, aafA and rpoS. As to conditions: EAEC 042, MinA-G. The test is classed as cell-based, Escherichia coli. The method, then: EAEC 042 was grown overnight in MinA-G medium and then diluted to a starting OD600 of 0.05 in three 50 ml MinA-G cultures with 0, 10, and 25 μg/ml NTZ. Bacterial cells were grown with shaking until the cultures reached an OD600 of ˜0.4 and were harvested by centrifugation at 4° C. The pellets were resuspended in 200 μl TE buffer, transferred to polystyrene round bottom 14 ml tubes, and total RNA was extracted by the TES-hot phenol method as previously described (15). The RNA was re-precipitated and washed two times with 500 μl 70% DEPC ethanol to remove any remaining salts. The pellets were dried at 37° C. and suspended in 100 μl DEPC water. RNA concentration was determined with a Nanoprop ND-1000 UV-Vis Spectrophotometer. RNA yields were typically in the 1.6-3.2 μg/μl range. Residual DNA was removed by treatment with TURBO DNase and stored at −80° C. (15).
Primers for real-time qRT-PCR were designed to yield approximately 150 base pair amplicons for the virulence genes aggR and aafA and for the stringent response gene rpoS, which served as an internal control. SuperScript™ II Reverse Transcriptase (Invitrogen) was used to synthesize first-strand cDNA from 1 μg purified RNA with 100 ng random primers (Invitrogen). RNA, random primers, and dNTPs (0.5 mM final concentration) were mixed, heated for 65° C. for 5 min, centrifuged briefly, and quick chilled on ice. […]
A general note: In qPCR the cycle at which signal appears reflects the starting amount.

A further test concerns C. difficile. The test can be described thus: MIC by agar dilution, C. difficile. It counts as cell-based, Clostridium difficile.
The test system of test [3] is EAEC strains 042 and 17-2. As to conditions: previous studies (38), cited from earlier work.
The test system of test [4] is S. epidermidis strain 9142. Nature of the test: Effect of zinc on the action of NTZ (biofilm and MIC). As to conditions: zinc 20 μM, read at 8 h. The test is classed as cell-based, Staphylococcus epidermidis. As to the method: […] As a control, ZnCl2 was added to untreated bacteria. Additional controls included testing of 10 μM CaCl2 and MgCl2 in the same format. The inhibitory effect of EDTA on biofilm production and its reversibility by Zn^2+ was also assessed as described for NTZ.

In brackets after ≈: the same amount, converted by molar mass. Read-outs that look alike come from different tables or passages of the source. Where only a bound is given, the exact number is not on record here.

Broadly, the MIC is the lowest concentration that inhibits growth of the organism. On to `CC(=O)Oc1ccccc1C(=O)Nc1ncc([N+](=O)[O-])s1` [Nitazoxanide, 2-(acetyloxy)-N-(5-nitro-2-thiazolyl)benzamide, reference compound], for which the MIC was 52.1 µM (≈ 16 µg/mL) in the test on S. epidermidis (Staphylococcus epidermidis, broth dilution, Trypticase Soy, 24 h, read-out: MIC (μM) S. epidermidis Plank); 52.1 µM (≈ 16 µg/mL) in the test on S. epidermidis (planktonic, 2-amino-3,5-dinitrothiophene analogues table, read-out: MIC S. epidermidis Plank); 52.1 µM (≈ 16 µg/mL) with S. epidermidis (planktonic, Thiophene analogues table, read-out: MIC S. epidermidis Plank); 39.1 µM (≈ 12 µg/mL) with C. jejuni (2-amino-3,5-dinitrothiophene analogues table, read-out: MIC C. jejuni); 39.1 µM (≈ 12 µg/mL) in the test with C. jejuni (Campylobacter jejuni, Furan analogues table, read-out: MIC C. jejuni); 39.1 µM (≈ 12 µg/mL) in the test with C. jejuni (Campylobacter jejuni, broth dilution, Brain Heart Infusion, 24 h, read-out: MIC (μM) C. jejuni). The MIC in the test with C. jejuni (Thiophene analogues table, read-out: MIC C. jejuni) was determined as 39.1 µM (≈ 12 µg/mL); in the test with C. difficile (2-amino-3,5-dinitrothiophene analogues table, read-out: MIC C. difficile), 52.1 µM (≈ 16 µg/mL); with C. difficile (Clostridioides difficile, Furan analogues table, read-out: MIC C. difficile), 52.1 µM (≈ 16 µg/mL); with C. difficile (Clostridioides difficile, agar dilution, anaerobic, Wilkins Chalgrin agar, read-out: MIC (μM) C. difficile), 52.1 µM (≈ 16 µg/mL); with C. difficile (Thiophene analogues table, read-out: MIC C. difficile), 52.1 µM (≈ 16 µg/mL). In addition, in test [1], the “HA (sheep erythrocytes), bacterial OD660 0.5” value was “−”. The “HA (sheep erythrocytes), bacterial OD660 1.0” value in test [1] was “−”. Further, in test [1], the “HA (sheep erythrocytes), bacterial OD660 1.5” value was “+”. Moreover, the “Increase in aggR transcript levels over untreated controls” value in test [2] is listed as roughly 10 fold. For the same compound, the aafA expression entry in test [2] is reported as “unaffected”. The “Concentrations inhibitory for growth on MinA base medium” value in test [3] (E. coli papillation assay) is “higher than 15 μg/ml”. Moreover, the “MIC in LB medium, previous studies” value in test [3] was greater than 64 µg/mL. In test [4], the “Effect of Zn2+ on the growth inhibitory action (MIC)” value was “no effect”.
